A value given as a limit tells only on which side of the number the result lay.

Experimental findings from patent US10399932B2, “Inhibitors of indoleamine-2,3-dioxygenase for the treatment of cancer” (BRISTOL-MYERS SQUIBB COMPANY, priority 2015, dated 2019) are described below.

human IDO1, sequence (P14902 whole entry): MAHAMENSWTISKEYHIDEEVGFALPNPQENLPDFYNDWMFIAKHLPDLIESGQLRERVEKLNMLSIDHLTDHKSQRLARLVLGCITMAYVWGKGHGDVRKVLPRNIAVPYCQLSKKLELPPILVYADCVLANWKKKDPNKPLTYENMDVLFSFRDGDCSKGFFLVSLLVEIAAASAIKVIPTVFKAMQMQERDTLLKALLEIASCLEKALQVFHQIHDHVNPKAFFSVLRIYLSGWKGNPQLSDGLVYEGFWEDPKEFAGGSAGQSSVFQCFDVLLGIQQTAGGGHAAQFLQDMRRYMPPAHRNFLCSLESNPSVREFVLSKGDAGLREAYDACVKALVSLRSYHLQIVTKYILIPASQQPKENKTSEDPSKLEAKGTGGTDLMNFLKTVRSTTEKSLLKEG

The assay has as its target human IDO1 (Homo sapiens, UniProt P14902). Briefly: Assessment of human IDO-1 inhibitory activity in HEK cells (human IDO1/HEK293 cells, Ehrlich reagent, absorbance at 490 nm). It counts as cell-based. Details: expressed in transfected cells. Particulars: In Vitro Potency in the HEK Human IDO-1 Cellular Assay. The protocol:
Exemplary compounds were tested for inhibition of IDO activity.
HEK293 cells were transfected with a pCDNA-based mammalian expression vector harboring human IDO1 cDNA (NM 002164.2) by electroporation. They were cultured in medium (DMEM with 10% FBS) containing 1 mg/ml G418 for two weeks. Clones of HEK293 cells that stably expressed human IDO1 protein were selected and expanded for IDO inhibition assay.
The human IDO1/HEK293 cells were seeded at 10,000 cells per 50 μL per well with RPMI/phenol red free media contains 10% FBS in a 384-well black wall clear bottom tissue culture plate (Matrix Technologies LLC) 100 nL of certain concentration of compound was then added to each well using ECHO liquid handling systems. The cells were incubated for 20 hours in 37° C. incubator with 5% CO2.
The compound treatments were stopped by adding trichloroacetic acid (Sigma-Aldrich) to a final concentration at 0.2%. The cell plate was further incubated at 50° C. for 30 minute. The equal volume supernatant (20 μL) and 0.2% (w/v) Ehrlich reagent (4-dimethylaminobenzaldehyde, Sigma-Aldrich) in glacial acetic acid were mixed in a new clear bottom 384-well plate. This plate was then incubated at room temperature for 30 minute. The absorbance at 490 nm was measured on Envision plate reader.
Compound IC50 values were calculated using the counts of 500 nM of a reference standard treatment as one hundred percent inhibition, and counts of no compound but DMSO treatment as zero percent inhibition.
In general, IC50 refers to the concentration needed to halve the response being measured. Higher therefore signals weaker potency. With “3-(4-((1,1-dioxidotetrahydro-2H-thiopyran-4-yl)(ethyl)amino)-3-((4-fluorophenyl)amino)phenyl)-4-isopropoxybutanoic acid [Example 300]”, the concentration for half-maximal inhibition (IC50) is below 50 nM. For `COCC(CC(=O)O)c1ccc(N(CC(C)C)C2CCC(OC)CC2)c(NC(=O)Nc2ccc(Cl)cc2F)c1` (racemic) [Example 1006, (+/−)-3-(3-(3-(4-Chloro-2-fluorophenyl)ureido)-4-(isobutyl((1r,4r)-4-methoxycyclohexyl)amino)phenyl)-4-methoxybutanoic acid] the value was below 5 nM; for `CCC(CC(=O)O)c1ccc(N(CC(C)C)C2CCCCC2)c(NC(=O)Cc2ccc(C)cc2)c1` (racemic) [Example 1084], below 5 nM; for `CCC(CC(=O)O)c1ccc(N(CC(C)C)C2CCCCC2)c(NC(=O)Cc2ccc(C#N)cc2)c1` (racemic) [Example 1086], below 5 nM. Regarding `CCC(CC(=O)O)c1ccc(N(CCC(C)C)C2CCCCC2)c(NC(=O)Cc2ccc(F)cc2)c1` (racemic) [Example 1089], the half-maximal inhibitory concentration (IC50) was above 50 nM. Consider `CCC(CC(=O)O)c1cc(F)c(N(CC(C)C)C2CCCCC2)c(NC(=O)Nc2ccc(C)cc2)c1` (racemic) [Example 1091], for which the IC50 is below 5 nM. Consider `COCC(CC(=O)O)c1ccc(N(CC(C)C)C2CCC(OC)CC2)c(NC(=O)Nc2ccc(C)cc2)c1` (racemic) [Example 1147], for which the concentration for half-maximal inhibition (IC50) was below 50 nM. With `COCC(CC(=O)OC)c1ccc(N(CC(C)C)C2CCC(OC)CC2)c(NC(=O)Nc2ccc(Cl)cc2F)c1` (racemic) [Example 1148], the 50% inhibitory concentration (IC50) is above 50 nM. As for `CCC(CC(=O)O)c1ccc(N2CC3CC2CN3Cc2ccccc2)c(NC(=O)Nc2ccc(C)cc2)c1` (single isomer, unassigned) [667 E1], the IC50 is above 50 nM. `CCC(CC(=O)O)c1ccc(N2CC3CC2CN3Cc2ccccc2)c(NC(=O)Nc2ccc(C)cc2)c1` (single isomer, unassigned) [667 E2] showed a concentration for half-maximal inhibition (IC50) above 50 nM. For `COCC(CC(=O)O)c1ccc(N(CC(C)C)C2CCCCC2)c(NC(=O)Nc2ccccc2F)c1` (single isomer, unassigned) [1125 E1] the value was below 5 nM; for `COCC(CC(=O)O)c1ccc(N(CC(C)C)C2CCCCC2)c(NC(=O)Nc2ccccc2F)c1` (single isomer, unassigned) [1125 E2], below 5 nM. On to `Cc1ccc(NC(=O)Nc2cc(C(CC(=O)O)C3CC3)ccc2N(CC(C)C)C2CCOCC2)cc1` (single isomer, unassigned) [1202 E1], for which the IC50 is below 5 nM. In turn, `Cc1ccc(NC(=O)Nc2cc(C(CC(=O)O)C3CC3)ccc2N(CC(C)C)C2CCOCC2)cc1` (single isomer, unassigned) [1202 E2] had a half-inhibitory concentration (IC50) below 5 nM. `CC(CC(=O)O)c1ccc(N(CC(C)(C)O)C2CCCCC2)c(Nc2ccc(Cl)c(OCC(F)(F)F)c2)c1` (single isomer, unassigned) [Example 55, 3-(3-((4-chloro-3-(2,2,2-trifluoroethoxy)phenyl)amino)-4-(cyclohexyl(2-hydroxy-2-methylpropyl)amino)phenyl) butanoic acid] showed an IC50 above 50 nM.

Consider `CCOc1ncc(Nc2cc(C(CC)CC(=O)O)ccc2N(CC)C2CCCOC2)cn1` (single isomer, unassigned) [Example 72, 3-(3-((2-ethoxypyrimidin-5-yl)amino)-4-(ethyl(tetrahydro-2H-pyran-3-yl)amino)phenyl)pentanoic acid], for which the half-inhibitory concentration (IC50) is below 5 nM. Then `CCC(CC(=O)O)c1cc(F)c(N(CC(C)C)CC(C)C)c(Nc2ccc3nc(C)sc3c2)c1` (single isomer, unassigned) [Example 111, 3-(4-(diisobutylamino)-3-fluoro-5-((2-methylbenzo [d]thiazol-6-yl)amino)phenyl)pentanoic acid], with above 50 nM; and `CCc1ccc(Nc2cc(C(CC)CC(=O)O)cc(F)c2N(CC(C)C)CC(C)C)cc1` (single isomer, unassigned) [Example 112, 3-(4-(diisobutylamino)-3-((4-ethylphenyl)amino)-5-fluorophenyl)pentanoic acid], with below 50 nM; and `CCOc1ccc(Nc2cc(C(CC)CC(=O)O)cc(F)c2N(CC(C)C)CC(C)C)cc1` (single isomer, unassigned) [Example 113, 3-(4-(diisobutylamino)-3-((4-ethoxyphenyl)amino)-5-fluorophenyl)pentanoic acid], with below 50 nM.

`CCC(CC(=O)O)c1cc(F)c(N(CC(C)C)CC(C)C)c(Nc2ccc(OCC(F)(F)F)cc2)c1` (single isomer, unassigned) [Example 114, 3-(4-(diisobutylamino)-3-fluoro-5-((4-(2,2,2-trifluoroethoxy)phenyl)amino)phenyl)pentanoic acid]: the IC50 is above 50 nM. Then `CCC(CC(=O)O)c1cc(F)c(N(CC(C)C)CC(C)C)c(Nc2ccc(Cl)cc2)c1` (single isomer, unassigned) [Example 115, 3-(3-((4-chlorophenyl)amino)-4-(diisobutylamino)-5-fluorophenyl)pentanoic acid], with below 5 nM. Compound `CCC(CC(=O)O)c1cc(F)c(N(CC(C)C)CC(C)C)c(Nc2ccc(F)cc2)c1` (single isomer, unassigned) [Example 116, 3-(4-(diisobutylamino)-3-fluoro-5-((4-fluorophenyl)amino)phenyl)pentanoic acid] gave a half-inhibitory concentration (IC50) below 5 nM. For `CCC(CC(=O)O)c1cc(F)c(N(CC(C)C)CC(C)C)c(Nc2ccc3c(c2)OC(F)(F)O3)c1` (single isomer, unassigned) [Example 117, 3-(3-((2,2-difluorobenzo [d][1,3]dioxol-5-yl)amino)-4-(diisobutylamino)-5-fluorophenyl)pentanoic acid] the value was below 5 nM; for `CCC(CC(=O)O)c1cc(F)c(N(CC(C)C)CC(C)C)c(Nc2cnc(OC)nc2)c1` (single isomer, unassigned) [Example 120, 3-(4-(diisobutylamino)-3-fluoro-5-((2-methoxypyrimidin-5-yl)amino)phenyl) pentanoic acid], below 5 nM; for `CCC(CC(=O)O)c1cc(F)c(N(CC(C)C)CC(C)C)c(Nc2ccnc(N3CCOCC3)n2)c1` (single isomer, unassigned) [Example 121, 3-(4-(diisobutylamino)-3-fluoro-5-((2-morpholinopyrimidin-4-yl)amino)phenyl) pentanoic acid], above 50 nM. For the compound `CCC(CC(=O)O)c1cc(F)c(N(CC(C)C)CC(C)C)c(Nc2ccc(OCC3CC3)cc2)c1` (single isomer, unassigned) [Example 122, 3-(3-((4-(cyclopropylmethoxy)phenyl)amino)-4-(diisobutylamino)-5-fluorophenyl)pentanoic acid], the half-maximal inhibitory concentration (IC50) was below 50 nM.

Consider `CCC(CC(=O)O)c1cc(F)c(N(CC(C)C)CC(C)C)c(Nc2ccc(C#N)cc2)c1` (single isomer, unassigned) [Example 123, 3-(3-((4-cyanophenyl)amino)-4-(diisobutylamino)-5-fluorophenyl)pentanoic acid], for which the IC50 was below 5 nM. In the case of `CCC(CC(=O)O)c1cc(F)c(N(CC(C)C)CC(C)C)c(NC(=O)c2ccc(Cl)cc2)c1` (single isomer, unassigned) [Example 128, 3-(3-(4-Chlorobenzamido)-4-(diisobutylamino)-5-fluorophenyl)pentanoic acid], the concentration for half-maximal inhibition (IC50) was above 50 nM.

The compound `CC(C)CN(CC(C)C)c1c(F)cc(C(CC(=O)O)c2ccccc2)cc1Nc1ccc(Cl)cc1` (single isomer, unassigned) [Example 131, 3-(3-((4-chlorophenyl)amino)-4-(diisobutylamino)-5-fluorophenyl)-3-phenylpropanoic acid] gave a half-inhibitory concentration (IC50) below 50 nM.

The compound `Cc1nc2ccc(Nc3cc(C(CC(=O)O)c4ccccc4)cc(F)c3N(CC(C)C)CC(C)C)cc2s1` (single isomer, unassigned) [Example 132, 3-(4-(diisobutylamino)-3-fluoro-5-((2-methylbenzo[d]thiazol-6-yl)amino)phenyl)-3-phenylpropanoic acid] gave an IC50 above 50 nM. Turning to `CC(CC(=O)O)c1ccc(N(CC(C)(C)O)C2CCOCC2)c(Nc2ccc(Cl)cc2)c1` (single isomer, unassigned) [Example 193, 3-(3-((4-chlorophenyl)amino)-4-((2-hydroxy-2-methylpropyl)(tetrahydro-2H-pyran-4-yl)amino)phenyl)butanoic acid], the IC50 is below 5 nM. For `CC[C@@H](CC(=O)O)c1ccc(N(CC(C)C)C2CCS(=O)(=O)CC2)c(NC(=O)Nc2cc(C)on2)c1` (single isomer, unassigned) [Example 218] the value was above 50 nM; for `CCc1ccc(Nc2cc([C@@H](CC)CC(=O)O)ccc2N(CC(C)(C)O)C2CCCCC2)cc1` (single isomer, unassigned) [Example 228], below 5 nM; for `CCc1cnc(Nc2cc([C@@H](CC)CC(=O)O)ccc2N(CC)C2CCCCC2)nc1` (single isomer, unassigned) [Example 280], above 50 nM. For `CCOc1ncc(Nc2cc(C(CC)CC(=O)O)ccc2N(CC(C)C)C2CCCCC2)cn1` (single isomer, unassigned) [Example 303, 3-(4-(cyclohexyl(isobutyl)amino)-3-((2-ethoxypyrimidin-5-yl)amino)phenyl)pentanoic acid] the value was below 5 nM.
